Measurements taken from patent US20110171275A1, “GASTRORETENTIVE DRUG DELIVERY SYSTEM, PREPARATION METHOD AND USE THEREOF” (TEAM ACADEMY OF PHARMACEUTICAL SCIENCE, priority 2008, published 2011).

Experiment: Solubility in artificial gastric juice versus artificial intestinal fluid
Format: physicochemical
Details: artificial gastric juice vs artificial intestinal fluid
Method: Rosiglitazone is a second-generation thiazolidinedione hypoglycemic agent. Gastric floating tablets of rosiglitazone reported in the literature are prepared by conventional preparation techniques for gastric floating tablets as follows: the hydrophilic gel material with high viscosity, i.e., hydroxypropyl methyl cellulose (HPMC) is selected, to which appropriate amount of foaming agent is added, and then the resulting mixture is compressed into tablets by direct powder compression. The resulting gastric floating tablets are claimed to have the same bioavailability with common tablets administered in a multiple doses [Hao Feng, Zhimin Wang, Dawei Chen, Studies on floating sustained release tablets of rosiglitazone maleate, Journal of China Pharmaceutical University, 2002, 33 (3): 196-199]. […] The gas-vesicle-type floating formulation of the present invention can ensure that the density of the formulation is relatively small (generally<0.6 g/cm^3), thereby it can float at the early stage of administration, since the shape of the capsule keeps unchange in the stomach. Thus, the entire volume of the formulation remains relatively stable, so that stable and sustainable floating capacity is achieved.

solubility in artificial gastric juice relative to artificial intestinal fluid: about a million times more
SMILES: CN(CCOc1ccc(CC2SC(=O)NC2=O)cc1)c1ccccn1 (stereo not shown) [rosiglitazone]
